Assay results taken from ChEMBL document CHEMBL1158378, “QSAR model for predicting radical scavenging activity of di(hetero)arylamines derivatives of benzo[b]thiophenes” (Eur J Med Chem, 2009).

Tests used:
[1] = system: Radical scavenging activity; assay: Antioxidant activity assessed as inhibition of DPPH radical formation by Hatano's method; format: functional
[2] = system: Radical scavenging activity; assay: Antioxidant activity assessed as inhibition of DPPH radical formation; format: functional

Row | pEC50 [1] | pEC50 [2] | SMILES
1 | 1.84 |  | Cc1sc2c(Nc3cccc(C#N)c3)cccc2c1C
2 | 3.84 |  | CCOC(=O)c1sc2ccccc2c1Nc1ccc(O)cc1O
3 |  | 3.91 | CCOC(=O)c1sc2ccccc2c1Nc1ccccc1O
4 | 4.14 |  | COc1ccc(Nc2cc3sc(C)c(C)c3cc2C)cc1
5 |  | 2.39 | Cc1cc2c(C)c(C)sc2cc1Nc1ccc(C=O)cc1
6 |  | 4.07 | COc1ccc(Nc2cc3sc(C)c(C)c3cc2C)c(OC)c1
7 | 4.26 |  | COc1ccc(Nc2cccc3c(C)c(C)sc23)cc1OC
8 |  | 2.1 | Cc1sc2c(C)c(Nc3ccccn3)cc(C)c2c1C
9 | 3.61 |  | COc1ccc(Nc2c(C(=O)O)sc3ccccc23)c(OC)c1
10 |  | 3.81 | COc1cc(Br)c(Nc2cc3sc(C)c(C)c3cc2C)cc1OC
11 |  | 3.05 | Cc1cc2c(C)c(C)sc2cc1Nc1ccccc1Br
12 |  | 3.38 | COc1cccc(Nc2cc3sc(C)c(C)c3cc2C)c1
13 |  | 2.43 | Cc1sc2c(C)c(Nc3ccccc3Br)cc(C)c2c1C
14 | 4.3 |  | COc1ccc(Nc2cccc3c(C)c(C)sc23)cc1
15 |  | 2.29 | Cc1sc2c(C)c(Nc3ccc(C#N)cc3)cc(C)c2c1C
16 | 3.77 |  | CCOC(=O)c1sc2ccccc2c1Nc1ccc(OC)cc1OC
17 |  | 3.98 | COc1ccc(Nc2cc(C)c3c(C)c(C)sc3c2C)c(Br)c1
18 | 2.5 |  | Cc1sc2c(Nc3cccnc3)cccc2c1C
19 | 2.81 |  | COc1cccc(Nc2cccc3c(C)c(C)sc23)c1
20 | 4.3 |  | COc1ccc(Nc2cc3sc(C)c(C)c3cc2C)cc1OC
21 |  | 3.69 | COc1ccc(Nc2cc3sc(C)c(C)c3cc2C)c(Br)c1
22 | 3.81 |  | Fc1ccccc1Nc1csc2ccccc12
23 |  | 2.91 | Cc1cc2c(C)c(C)sc2cc1Nc1ccccc1I
24 |  | 4.06 | COc1ccc(Nc2csc3ccccc23)c(OC)c1
25 |  | 3.89 | COc1ccc(Nc2cc(C)c3c(C)c(C)sc3c2C)cc1
26 | 2.26 |  | Cc1sc2c(Nc3ccccn3)cccc2c1C
